Like-named read-outs stand apart in the source and are kept apart here.
Target: T1, Bombyx mori EcR (VP16 fusion, switch construct CVBE) with 6XEcRE LacZ reporter (Bombyx mori, UniProt P49881)
T1 construct: expressed in transfected cells; host or cells: Human 293 kidney (HEK-293) cells, retrovirally infected, clone Z3
T1 sequence (P49881 86-606 limits assumed): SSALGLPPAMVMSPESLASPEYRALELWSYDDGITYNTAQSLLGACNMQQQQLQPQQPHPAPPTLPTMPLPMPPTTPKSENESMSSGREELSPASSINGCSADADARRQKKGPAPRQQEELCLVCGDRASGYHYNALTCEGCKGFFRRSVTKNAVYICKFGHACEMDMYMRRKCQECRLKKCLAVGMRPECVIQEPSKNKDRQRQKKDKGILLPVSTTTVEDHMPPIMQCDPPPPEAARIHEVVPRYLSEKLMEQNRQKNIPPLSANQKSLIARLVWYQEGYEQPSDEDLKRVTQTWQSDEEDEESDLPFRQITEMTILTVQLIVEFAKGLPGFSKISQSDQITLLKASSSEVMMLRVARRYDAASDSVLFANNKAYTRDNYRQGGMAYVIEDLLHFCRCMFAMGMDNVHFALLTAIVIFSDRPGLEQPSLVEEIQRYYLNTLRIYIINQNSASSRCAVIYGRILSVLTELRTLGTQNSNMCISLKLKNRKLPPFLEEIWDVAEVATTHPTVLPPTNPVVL
T1 sequence (P19793 1-462 partner): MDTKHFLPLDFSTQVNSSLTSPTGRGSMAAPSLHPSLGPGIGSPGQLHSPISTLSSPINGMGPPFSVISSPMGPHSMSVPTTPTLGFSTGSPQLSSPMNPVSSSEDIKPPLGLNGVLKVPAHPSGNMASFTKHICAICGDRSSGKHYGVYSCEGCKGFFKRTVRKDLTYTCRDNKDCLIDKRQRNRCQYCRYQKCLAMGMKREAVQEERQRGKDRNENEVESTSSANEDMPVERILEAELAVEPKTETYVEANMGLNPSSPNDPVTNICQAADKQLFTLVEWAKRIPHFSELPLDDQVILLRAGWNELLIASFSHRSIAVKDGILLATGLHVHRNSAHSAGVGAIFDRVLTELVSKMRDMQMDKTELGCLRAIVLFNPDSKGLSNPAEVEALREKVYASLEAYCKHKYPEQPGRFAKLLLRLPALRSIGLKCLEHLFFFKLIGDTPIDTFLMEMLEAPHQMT
Assay: Z3 assay: β-galactosidase (LacZ) reporter gene fold induction in stably transformed human 293 kidney cells (clone Z3)
Type: cell-based
In short: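 β-Galactosidase read 48 h after dosing by bioluminescent assay; ligand added at 33 μM with DMSO held at 0.03%. The cells are stable 293 clone Z3, expressing a CMV-driven VP16 fusion of Bombyx mori EcR residues 26-546 plus six EcRE copies upstream of lacZ.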

[1] = single dose 33 μM; ligand treated / DMSO treated cells
[2] = average; dose response, three-parameter logistic model; read-out: Z3 LC50
[3] = maximum fold induction at any concentration relative to that of GS-E ligand
[4] = read-out: Fold Induction Average, Z3 Assay (33 μM)
[5] = read-out: Z3 LC50; average; dose response, three-parameter logistic model
[6] = single dose 33 μM; ligand treated / DMSO treated cells; read-out: Fold Induction Average, Z3 Assay (33 μM)

| Structure (SMILES) | Fold Induction Average, Z3 Assay (33 μM) [1] | CC50 [2] [µM] | Z3 Rel Max FI [3] | fold induction at 33 µM [4] | CC50 [5] [µM] | fold induction at 33 µM [6] |
| --- | --- | --- | --- | --- | --- | --- |
| CCOC(=O)C(=O)N1CCCC(NC(=O)c2cccc(OC)c2C)(C(=O)c2cc(C)cc(C)c2)C1 (racemic) [Example 154] | 7 | – | – | – | – | – |
| COC(=O)CN1CCCC(NC(=O)c2cccc(OC)c2C)(C(=O)c2cc(C)cc(C)c2)C1 (racemic) [Example 156] | 78 | ~20 | 0.03 | – | – | – |
| COc1cccc(C(=O)C2(NC(=O)c3cccc(OC)c3C)CCCCC2)c1 [Example 4] | – | – | 0.54 | 233 | 1.19 | – |
| COc1cccc(C(=O)NC2(C(=O)c3cccc(C)c3)CCCCC2)c1C [Example 7] | – | – | 0.78 | 811 | 3.51 | – |
| COc1cccc(C(=O)NC2(C(=O)c3cc(C)cc(C)c3)CCCC2)c1C [Example 10] | – | 1.87 | 0.85 | – | – | 464 |
| COc1cccc(C(=O)NC2(C(=O)c3cc(C)cc(C)c3)CCCCC2)c1C [Example 11] | – | 1.41 | 0.99 | – | – | 722 |
| COc1cccc(C(=O)NC(C)(Cc2ccccc2)C(=O)c2cc(C)cc(C)c2)c1C (stereo not shown) [Example 12] | – | – | 0.09 | 76 | 10 | – |
| COc1cccc(C(=O)NC2(C(=O)c3cc(C)cc(C)c3)CC2)c1C [Example 13] | – | – | 0.22 | 293 | 20.4 | – |
| COc1cccc(C(=O)NC2(C(=O)c3cc(C)cc(C)c3)CCC2)c1C [Example 14] | – | 8.52 | 0.69 | – | – | 945 |
| COc1cccc(C(=O)NC2(C(=O)c3ccc(C)cc3)CCCCC2)c1C [Example 15] | – | – | 0.70 | 921 | 3.01 | – |
| COc1cccc(C(=O)NC2(C(=O)c3ccc(F)c(C)c3)CCCC2)c1C [Example 17] | – | – | 0.43 | 393 | 3.47 | – |
| COc1cccc(C(=O)NC2(C(=O)c3ccc(F)c(C)c3)CCCCC2)c1C [Example 18] | – | – | 0.67 | 657 | 3.41 | – |
| COc1cccc(C(=O)NC(C)(C(=O)c2cc(C)cc(C)c2)C(C)C)c1C (stereo not shown) [Example 20] | – | – | 0.75 | 573 | 2.06 | – |
| CCc1c(OC)cccc1C(=O)NC1(C(=O)c2ccccc2)CCCC1 [Example 21] | – | – | 0.33 | 305 | ~15 | – |
| CCc1c(C(=O)NC2(C(=O)c3ccccc3)CCCC2)ccc2c1OCCO2 [Example 22] | – | – | 0.48 | 602 | ~10 | – |
| COc1cccc(C(=O)NC2(C(=O)c3cccc(C)c3)CCOCC2)c1C [Example 25] | – | – | 0.07 | 19 | ~20 | – |
| COc1cccc(C(=O)NC2(C(=O)c3cccc(C)c3)CCSCC2)c1C [Example 26] | – | – | 0.60 | 751 | ~15 | – |
| COc1cccc(C(=O)NC2(C(=O)c3cc(C)cc(C)c3)CCOCC2)c1C [Example 27] | – | – | 0.81 | 562 | 10 | – |
| COc1cccc(C(=O)NC2(C(=O)c3cc(C)cc(C)c3)CCSCC2)c1C [Example 28] | – | 1.6 | 0.98 | – | – | 1220 |

| Structure (SMILES) | Fold Induction Average, Z3 Assay (33 μM) [1] | CC50 [2] [µM] | Z3 Rel Max FI [3] | fold induction at 33 µM [4] | CC50 [5] [µM] | fold induction at 33 µM [6] |
| --- | --- | --- | --- | --- | --- | --- |
| COc1cccc(C(=O)NC2(C(=O)c3cc(C)cc(C)c3)CCC3(CC2)OCCO3)c1C [Example 29] | – | – | 0.06 | 116 | ~15 | – |
| COc1ccccc1C(=O)C(C)(NC(=O)c1cccc(OC)c1C)C(C)C (stereo not shown) [Example 30] | – | – | 0.20 | 485 | ~15 | – |
| COc1cccc(C(=O)NC(C)(C(=O)c2cccc(C)c2)C(C)C)c1C (stereo not shown) [Example 31] | – | 8.61 | 0.47 | – | – | 312 |
| COc1cccc(C(=O)C(C)(NC(=O)c2cccc(OC)c2C)C(C)C)c1 (stereo not shown) [Example 32] | – | – | 0.12 | 33 | 25.5 | – |
| COc1cccc(C(=O)NC(C)(C(=O)c2ccc(C)cc2)C(C)C)c1C (stereo not shown) [Example 33] | – | ~20 | 0.05 | – | – | 31 |
| COc1cccc(C(=O)NC(C)(C(=O)c2ccccc2)C(C)C)c1C (stereo not shown) [Example 34] | – | – | 0.04 | 66 | > 33 | – |
| CCC(CC)(NC(=O)c1cccc(OC)c1C)C(=O)c1ccccc1OC [Example 37] | – | – | 0.29 | 327 | 6.19 | – |
| CCC(CC)(NC(=O)c1cccc(OC)c1C)C(=O)c1ccc(F)cc1 [Example 38] | – | 13.7 | 0.04 | – | – | 51 |
| COc1ccccc1C(=O)C1(NC(=O)c2cccc(OC)c2C)CCCC1 [Example 40] | – | – | 0.70 | 951 | 5.16 | – |
| COc1cccc(C(=O)NC2(C(=O)c3ccc(F)cc3)CCCC2)c1C [Example 42] | – | – | 0.14 | 153 | ~15 | – |
| COc1cccc(C(=O)NC2(C(=O)c3ccccc3C)CCCCC2)c1C [Example 44] | – | – | 0.23 | 94 | 16.8 | – |
| COc1ccccc1C(=O)C1(NC(=O)c2cccc(OC)c2C)CCCCC1 [Example 45] | – | – | 0.84 | 665 | 0.98 | – |
| COc1ccc(C(=O)C2(NC(=O)c3cccc(OC)c3C)CCCCC2)cc1 [Example 46] | – | – | 0.03 | 15 | > 33 | – |
| CCC(CC)(NC(=O)c1cccc(OC)c1C)C(=O)c1cccc(C)c1 [Example 48] | – | 6.61 | 0.25 | – | – | 356 |
| CCC(CC)(NC(=O)c1cccc(OC)c1C)C(=O)c1cccc(OC)c1 [Example 49] | – | – | 0.01 | 182 | > 33 | – |
| CCC(CC)(NC(=O)c1cccc(OC)c1C)C(=O)c1ccc(F)c(C)c1 [Example 50] | – | – | 0.07 | 178 | 10.4 | – |
| CCC(CC)(NC(=O)c1cccc(OC)c1C)C(=O)c1cc(C)cc(C)c1 [Example 51] | – | 4.53 | 0.61 | – | – | 817 |
| COc1cccc(C(=O)NC(C)(CC(C)C)C(=O)c2cccc(C)c2)c1C (stereo not shown) [Example 52] | – | – | 0.24 | 239 | 6.09 | – |
